# Data: ChEMBL document CHEMBL1158860, “New Diosgenin Glycosides from Costus afer” (J Nat Prod, 1997)
# The source made the active and inactive calls. The calls are words filed in the database; no cut-off is given here.
# Test system: HL-60
# Experiment: Potentiation of cisplatin cytotoxicity against human HL60 cells
# Assay type: functional, cell-based
row,Structure (SMILES),Activity
1,CC(=O)O[C@@H]1[C@@H](O)[C@@H](O)[C@H](O[C@H]2[C@H](O[C@H]3CC[C@@]4(C)C(=CC[C@H]5[C@@H]6C[C@@H]7O[C@]8(CC[C@@H](C)CO8)[C@@H](C)[C@@H]7[C@@]6(C)CC[C@@H]54)C3)O[C@H](CO)[C@@H](O[C@@H]3OC[C@](O)(CO)[C@H]3O)[C@@H]2O)O[C@H]1C,inactive
2,C[C@@H]1CC[C@@]2(OC1)O[C@H]1C[C@H]3[C@@H]4CC=C5C[C@@H](O[C@@H]6O[C@H](CO)[C@@H](O[C@@H]7O[C@@H](C)[C@H](O)[C@@H](O)[C@H]7O)[C@H](O)[C@H]6O[C@@H]6O[C@@H](C)[C@H](O)[C@@H](O)[C@H]6O)CC[C@]5(C)[C@H]4CC[C@]3(C)[C@H]1[C@@H]2C,inactive
3,C[C@@H]1CC[C@@]2(OC1)O[C@H]1C[C@H]3[C@@H]4CC=C5C[C@@H](O[C@@H]6O[C@H](CO)[C@@H](O[C@@H]7OC[C@](O)(CO)[C@H]7O)[C@H](O)[C@H]6O)CC[C@]5(C)[C@H]4CC[C@]3(C)[C@H]1[C@@H]2C,inactive
4,C[C@@H]1CC[C@@]2(OC1)O[C@H]1C[C@H]3[C@@H]4CC=C5C[C@@H](O[C@@H]6O[C@H](CO)[C@@H](O[C@@H]7OC[C@](O)(CO)[C@H]7O)[C@H](O)[C@H]6O[C@@H]6O[C@@H](C)[C@H](O)[C@@H](O)[C@H]6O)CC[C@]5(C)[C@H]4CC[C@]3(C)[C@H]1[C@@H]2C,inactive
